Assay results published in article PMC11851430, “Workflow for E3 Ligase Ligand Validation for PROTAC Development” (ACS Chemical Biology, 2025).

Legend:
PLK4A = biological target: T1, PLK4A (Homo sapiens, UniProt O00444); assay: DSF assay; format: binding; conditions: 20 µM compound
T1 construct: purchased in-house DSF panel (SGC-style construct names; the trailing A/B is a construct suffix)
T1 sequence (O00444 2-275): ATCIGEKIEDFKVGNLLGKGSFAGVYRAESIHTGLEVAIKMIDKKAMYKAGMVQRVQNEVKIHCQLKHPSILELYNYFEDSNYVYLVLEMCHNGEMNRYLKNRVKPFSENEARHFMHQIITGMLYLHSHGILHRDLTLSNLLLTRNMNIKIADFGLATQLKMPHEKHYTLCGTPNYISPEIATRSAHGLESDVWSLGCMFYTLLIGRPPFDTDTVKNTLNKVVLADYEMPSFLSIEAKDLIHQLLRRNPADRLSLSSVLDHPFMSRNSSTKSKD

RPS6K5A = assay: DSF assay; format: binding; conditions: 20 µM compound
ABL1A = biological target: T2, ABL1A (Homo sapiens, UniProt P00519); assay: DSF assay; format: binding; conditions: 20 µM compound
T2 construct: purchased in-house DSF panel (SGC-style construct names; the trailing A/B is a construct suffix)
T2 sequence (P00519 229-512): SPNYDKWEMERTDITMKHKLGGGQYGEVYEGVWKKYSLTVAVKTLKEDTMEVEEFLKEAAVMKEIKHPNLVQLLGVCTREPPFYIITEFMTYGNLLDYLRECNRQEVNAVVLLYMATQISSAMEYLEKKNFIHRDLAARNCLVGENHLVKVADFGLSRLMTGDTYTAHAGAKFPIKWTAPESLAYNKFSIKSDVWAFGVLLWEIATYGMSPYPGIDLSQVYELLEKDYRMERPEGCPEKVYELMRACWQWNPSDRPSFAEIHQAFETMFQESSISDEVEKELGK

ITK^HiBiT = biological target: T3, ITK^HiBiT (Homo sapiens, UniProt Q08881); assay: HiBiT assay, Jurkat cells expressing ITK^HiBiT; format: cell-based; conditions: 6 h
T3 construct: HiBiT-ITK construct was cloned by PCR amplification of vector containing full-length; expressed in transfected cells
T3 sequence (Q08881 1-620): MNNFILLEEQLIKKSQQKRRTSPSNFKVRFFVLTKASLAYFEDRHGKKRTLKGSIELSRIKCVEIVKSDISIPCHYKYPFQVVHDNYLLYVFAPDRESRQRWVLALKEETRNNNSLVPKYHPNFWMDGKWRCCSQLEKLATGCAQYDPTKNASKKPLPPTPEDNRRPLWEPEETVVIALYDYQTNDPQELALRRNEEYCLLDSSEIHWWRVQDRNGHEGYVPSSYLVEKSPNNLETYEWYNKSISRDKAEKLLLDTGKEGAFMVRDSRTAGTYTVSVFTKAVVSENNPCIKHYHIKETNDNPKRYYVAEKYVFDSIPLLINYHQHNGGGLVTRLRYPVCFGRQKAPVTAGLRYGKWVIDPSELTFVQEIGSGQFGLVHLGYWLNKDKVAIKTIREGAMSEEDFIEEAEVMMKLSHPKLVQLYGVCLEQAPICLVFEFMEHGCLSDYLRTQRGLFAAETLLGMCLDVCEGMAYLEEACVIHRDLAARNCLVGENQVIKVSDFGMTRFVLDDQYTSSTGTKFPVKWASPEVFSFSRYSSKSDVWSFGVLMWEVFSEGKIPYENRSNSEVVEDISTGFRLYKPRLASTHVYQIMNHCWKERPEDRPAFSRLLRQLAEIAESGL
Protocol: Cell culture. Human MV4-11 ([…]) and human Jurkat ([…]) cells were cultured in RPMI- […]
1640 medium whereas human HEK293 ([…]) cells were cultured in DMEM medium at 37 °C in 5% CO2. Both media were supplemented with 10% FBS and 1% penicillin/streptomycin.
Cloning. HiBiT-ITK construct was cloned by PCR amplification of vector containing full-length
ITK. The PCR product was inserted into pRRL-PGK-HiBiT entry vector using AgeI/MluI sites.
The following primers were used for cloning HiBiT-ITK; forward: […]
Cell line generation. The stable cell line MV4-11 AURORA−HiBiT was generated as previously described.14 Lentiviral infection was used to generate the stable Jurkat HiBiT cell line.
Lentivirus was produced using plasmids psPAX2, pMD2.G, and HiBiT-ITK plasmid in HEK293 cells. Jurkat cells were infected with filtered virus supernatant and selected after 48 h of infection for the generation of the stable JurkatITK-HiBiT cell line.
HiBiT Measurements. HiBiT assay was performed as described previously. 14 Briefly, MV4-11 and Jurkat HiBiT cells were seeded and treated with compounds for the indicated time. Nano-Glo HiBiT Lytic Detection System (Promega) was used for the assay and luminescence was measured on a Tecan Spark Multiplate reader (Tecan). DC50s were calculated using the dose-response (four parameters) equation in Prism (GraphPad).

Row | SMILES | ΔTm at 20 µM (PLK4A) [°C] | ΔTm at 20 µM (ABL1A) [°C] | DC50 (ITK^HiBiT) [nM] | Dmax (ITK^HiBiT) [%] | concentration at which a hook effect was observed (ITK^HiBiT) [µM] | ΔTm (RPS6K5A) [°C]
1 | CC(C)(C)OC(=O)NCCOCCOCCOCCOCCC(=O)N1CCN(c2cc(Nc3cc(C4CC4)[nH]n3)nc(Nc3ccc(CC#N)cc3)n2)CC1 [4-L] | 16.1 | 11.3 | – | – | – | 9.52
2 | Cc1ncsc1-c1ccc(CNC(=O)[C@@H]2C[C@@H](O)CN2C(=O)[C@@H](NC(=O)CCOCCOCCOCCN2CCN(c3cc(Nc4cc(C5CC5)[nH]n4)nc(Nc4ccc(CC#N)cc4)n3)CC2)C(C)(C)C)cc1 [4-a] | – | – | 937 | ≤ 71 | – | –

Continued, in another order:

Row | ΔTm at 20 µM (PLK4A) [°C] | ΔTm at 20 µM (ABL1A) [°C] | DC50 (ITK^HiBiT) [nM] | Dmax (ITK^HiBiT) [%] | concentration at which a hook effect was observed (ITK^HiBiT) [µM] | SMILES | ΔTm (RPS6K5A) [°C]
3 | 11.6 | 6.31 | – | – | – | CC(C)(C)OC(=O)NCCCOCCOCCOCCCNC(=O)c1cc(Nc2cc(C3CC3)[nH]n2)nc(Nc2ccc(CC#N)cc2)n1 [5-L] | 11.21
4 | – | – | 42 | ≤ 71 | > 1 | Cc1ncsc1-c1ccc(CNC(=O)[C@@H]2C[C@@H](O)CN2C(=O)[C@@H](NC(=O)CCOCCOCCOCCOCCN2CCN(c3ccc(Nc4ncc(Cl)c(Nc5ccccc5C(N)=O)n4)cc3)CC2)C(C)(C)C)cc1 [6-b] | –
5 | 13.2 | 7.27 | – | – | – | CCOC(=O)c1cc(Nc2cc(C3CC3)[nH]n2)nc(Nc2ccc(CC#N)cc2)n1 [compound 5] | 14.62
